These results are taken from ChEMBL document CHEMBL1201862, “PubChem BioAssay data set” (2004).

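Interpolation was linear, between the two tested concentrations surrounding the appropriate level; five concentrations were tested over 48 hours in 96-well plates. GI50 marks 50% less growth.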 Active and inactive are the calls of the source. No stated cut-off is given here; in the data, active = GI50 up to about 1.1 µM and inactive = higher. Where only a bound is given, the exact number is not on record here.

Among the test systems are HCT-116; SR; UACC-62; COLO 205; OVCAR-8; SF-268; IGROV-1; NCI-H226; SK-MEL-2; HOP-92; SNB-75; SK-MEL-28; HOP-62; OVCAR-5; RPMI-8226; CAKI-1; DU-145; PC-3; MDA-N; MDA-MB-435.
Common to all, as to experiment: NCI tumour cell line growth inhibition, 48 h

Take `COc1cc2c(cc1OC)C(C1(O)CCCCC1)NCC2` (stereo not given): the GI50 with HCT-116, in the test with SR, in the test on UACC-62, in the test with COLO 205, in the test with OVCAR-8 and in the test with SF-268 was > 100 µM (inactive) each time. Moreover, the GI50 in the test with IGROV-1, in the test on NCI-H226, with SK-MEL-2, with HOP-92, with SNB-75 and in the test on SK-MEL-28 was > 100 µM (inactive) in each case. Moreover, the GI50 in the test on HOP-62, in the test with OVCAR-5 and in the test on RPMI-8226 was > 100 µM (inactive) each time.
With `CC(C)(C)OC(=O)NCC(=O)NC1c2ccsc2/C(=N/O)[C@H]1O` (stereo not given in full), the GI50 with HCT-116, in the test on SR, in the test with CAKI-1, with UACC-62, with COLO 205 and with OVCAR-8 was > 100 µM (inactive) in each case. Besides, the GI50 was > 100 µM (inactive) in the test with IGROV-1; > 100 µM (inactive) with NCI-H226; > 100 µM (inactive) with SK-MEL-2; 7.36 µM (inactive) with HOP-92; > 100 µM (inactive) in the test on DU-145; > 100 µM (inactive) with SK-MEL-28. Further, the GI50 with HOP-62, with OVCAR-5, in the test with PC-3, in the test on MDA-N and with MDA-MB-435 was > 100 µM (inactive) in each case.
In the case of `COCCOCOc1ccc(OCc2ccccc2)cc1`, the GI50 was > 100 µM (inactive) in the test on HCT-116; 2.25 µM (inactive) in the test on CAKI-1; > 100 µM (inactive) in the test with UACC-62; > 100 µM (inactive) with COLO 205; > 100 µM (inactive) with OVCAR-8; > 100 µM (inactive) in the test with SF-268. Moreover, the GI50 with IGROV-1 is > 100 µM (inactive); with NCI-H226, > 100 µM (inactive); in the test with SK-MEL-2 it was > 82.6 µM (inactive); in the test on HOP-92, > 100 µM (inactive); with SK-MEL-28 it was > 100 µM (inactive); in the test with HOP-62, > 100 µM (inactive). Moreover, the results for the GI50 in the test on OVCAR-5 and in the test on RPMI-8226 were > 100 µM (inactive) and > 49.5 µM (inactive), respectively.
For `O=C1c2ccccc2OCC12OC21C=CC(Cl)=CC1` (stereo not given), the GI50 in the test with HCT-116 was 18.9 µM (inactive); with SR, 2.07 µM (inactive); in the test with UACC-62 it was 27.3 µM (inactive); with COLO 205, 18 µM (inactive); with SF-268 it was 35.5 µM (inactive); in the test on IGROV-1, 42.9 µM (inactive). Moreover, the GI50 in the test on NCI-H226 is 30.5 µM (inactive); with SK-MEL-2 it was 21.7 µM (inactive); in the test on HOP-92, 36.1 µM (inactive); in the test on DU-145, 14.4 µM (inactive); in the test with SK-MEL-28, 28.4 µM (inactive); in the test with HOP-62, 33.7 µM (inactive). For the same molecule, the GI50 was 31.8 µM (inactive) with OVCAR-5; 14.8 µM (inactive) in the test on RPMI-8226; 26.5 µM (inactive) in the test on PC-3; 17 µM (inactive) with MDA-N; 20.1 µM (inactive) in the test with MDA-MB-435.
On to `CSc1nc(N)c2c(-c3ccccc3)c3c(nc2n1)CCCC3`, for which the GI50 in the test with HCT-116 was > 100 µM (inactive); in the test on SR, > 100 µM (inactive); in the test on CAKI-1, > 100 µM (inactive); in the test with UACC-62, > 100 µM (inactive); in the test on COLO 205, > 100 µM (inactive); in the test with OVCAR-8 it was 20.8 µM (inactive). Besides, the GI50 with SF-268 is > 10 µM (inactive); in the test with IGROV-1 it was > 100 µM (inactive); in the test on SNB-75, 31.3 µM (inactive); in the test on DU-145 it was > 100 µM (inactive); in the test with SK-MEL-28, > 100 µM (inactive); in the test on HOP-62 it was 98.4 µM (inactive). The GI50 with OVCAR-5, in the test with RPMI-8226, with PC-3, in the test on MDA-N and with MDA-MB-435 was > 100 µM (inactive) each time.
As to `COc1cc2c(cc1Oc1ccc(OC)c3c1CC1c4c(cc(OC)c(OC)c4-3)CCN1C)CC1c3c(cc(OC)c(OC)c3-2)CCN1C` (stereo not given), the GI50 in the test on HCT-116 is 1.77 µM (inactive); with CAKI-1, 2.1 µM (inactive); in the test on UACC-62, 1.97 µM (inactive); in the test with COLO 205 it was 1.48 µM (inactive); in the test with OVCAR-8, 5.3 µM (inactive); in the test with SF-268 it was 2.33 µM (inactive). For the same molecule, the GI50 in the test on IGROV-1 was 3.86 µM (inactive); in the test on NCI-H226, 1.53 µM (inactive); with SK-MEL-2, 1.74 µM (inactive); in the test with HOP-92, 2.34 µM (inactive); with SNB-75, 2.26 µM (inactive); with SK-MEL-28, 1.82 µM (inactive). Moreover, the GI50 in the test with HOP-62 is 17.1 µM (inactive); with OVCAR-5 it was 6.05 µM (inactive); in the test on RPMI-8226, 0.221 µM (active).
As for `CC(=C/c1ccccc1)/C=C1/NC(=S)N(/C=C2\C(=O)Oc3ccccc3C2=O)C1=O`, the GI50 in the test on HCT-116 is 41.9 µM (inactive); in the test on SR, 38.1 µM (inactive); in the test on COLO 205, 36.7 µM (inactive); in the test with OVCAR-8, 52.4 µM (inactive); in the test on SF-268, 53.6 µM (inactive); with NCI-H226, 67.9 µM (inactive). The GI50 in the test with SK-MEL-2 is > 100 µM (inactive); with HOP-92, 7.78 µM (inactive); in the test on SNB-75, > 100 µM (inactive); in the test on DU-145, 45.8 µM (inactive); in the test with SK-MEL-28, 52.1 µM (inactive); in the test on HOP-62 it was 83.2 µM (inactive). Also, the GI50 was > 100 µM (inactive) in the test with OVCAR-5; 26.6 µM (inactive) in the test on RPMI-8226; 96.6 µM (inactive) in the test on PC-3; 96.6 µM (inactive) with MDA-N; 45.1 µM (inactive) with MDA-MB-435.
For the molecule `CC(=O)ON1C(=O)c2cccc3cccc(c23)C1=O`, the GI50 with HCT-116 was 6.93 µM (inactive); with CAKI-1, 17.9 µM (inactive); in the test with UACC-62 it was 19.9 µM (inactive); with COLO 205, 26.8 µM (inactive); in the test on OVCAR-8, 27.1 µM (inactive); in the test with SF-268, 22.6 µM (inactive). Moreover, the GI50 in the test with IGROV-1 was 7.28 µM (inactive); with SK-MEL-2 it was 18.3 µM (inactive); with HOP-92, > 100 µM (inactive); in the test on DU-145, 15.1 µM (inactive); in the test with SK-MEL-28, 17.9 µM (inactive); in the test on HOP-62, 22.8 µM (inactive). For the same molecule, the GI50 in the test with OVCAR-5 is 35.1 µM (inactive); with RPMI-8226, 12.7 µM (inactive); in the test with PC-3, 25.8 µM (inactive); with MDA-N, 18.3 µM (inactive); in the test on MDA-MB-435, 14.7 µM (inactive).
With `CN(C)c1nc(N(C)C)nc(N(C)CN(C)c2ccccc2)n1`, the GI50 in the test with HCT-116, in the test with UACC-62, with OVCAR-8, in the test on SF-268, in the test with IGROV-1 and in the test on NCI-H226 was > 100 µM (inactive) each time. Moreover, the GI50 in the test on SK-MEL-2, with SNB-75 and in the test on SK-MEL-28 was > 100 µM (inactive) each time.
In the case of `Cc1cc(NS(=O)(=O)c2ccc(NC(=O)c3cccc4c(Nc5ccc(S(N)(=O)=O)cc5)c5ccccc5nc34)cc2)no1`, the GI50 with HCT-116 was > 100 µM (inactive); in the test with SR, 80.9 µM (inactive); with UACC-62 it was > 100 µM (inactive); in the test with SF-268, > 100 µM (inactive); with SK-MEL-2, > 100 µM (inactive); in the test with SNB-75, 60 µM (inactive). The GI50 with SK-MEL-28 was > 100 µM (inactive); with HOP-62, > 100 µM (inactive); with OVCAR-5, > 100 µM (inactive); with RPMI-8226, 87.9 µM (inactive).
With `Cc1ccccc1-c1nc2c(C(=O)NCCN(C)C)cccc2[nH]1`, the GI50 with HCT-116 is 29.6 µM (inactive); in the test with CAKI-1 it was 47.6 µM (inactive); in the test on UACC-62, 40.3 µM (inactive); in the test on COLO 205 it was 18.5 µM (inactive); with OVCAR-8, 42.8 µM (inactive); in the test on SF-268, 50.7 µM (inactive). The GI50 in the test on IGROV-1 is 58.5 µM (inactive); in the test on NCI-H226, 16 µM (inactive); in the test on SK-MEL-2 it was > 85.3 µM (inactive); in the test on HOP-92, 20.6 µM (inactive); with SNB-75 it was 39.3 µM (inactive); in the test on SK-MEL-28, > 93.3 µM (inactive). Besides, the GI50 in the test on HOP-62 is 31.5 µM (inactive); in the test with OVCAR-5, 40.2 µM (inactive); in the test on RPMI-8226, 27.7 µM (inactive).
For the molecule `O=C1OC(c2ccc(O)c(F)c2)(c2ccc(O)c(F)c2)c2cccc3cccc1c23`, the GI50 is > 25 µM (inactive) in the test with HCT-116; 8.04 µM (inactive) in the test on SR; 2.79 µM (inactive) in the test with CAKI-1; 17.5 µM (inactive) in the test with UACC-62; 1.26 µM (inactive) in the test on COLO 205; > 25 µM (inactive) with OVCAR-8. Also, the GI50 with SF-268, in the test with IGROV-1, in the test on NCI-H226, in the test with SK-MEL-2, in the test with HOP-92 and with DU-145 was > 25 µM (inactive) each time. Moreover, the GI50 in the test on SK-MEL-28 is 0.0643 µM (active); in the test with HOP-62, > 25 µM (inactive); with OVCAR-5 it was > 25 µM (inactive); with RPMI-8226, 17.2 µM (inactive); in the test with PC-3, 3.09 µM (inactive); with MDA-N, 15.6 µM (inactive). For the same molecule, the GI50 with MDA-MB-435 is > 25 µM (inactive).
Take `NC(=O)Oc1ccccc1` [CARBAMIC ACID PHENYL ESTER]: the GI50 in the test with HCT-116, in the test with SR, with COLO 205, in the test with OVCAR-8, in the test with SF-268 and in the test with NCI-H226 was > 100 µM (inactive) in each case. The GI50 in the test on HOP-92, in the test on SNB-75, with DU-145, with SK-MEL-28, with PC-3 and with MDA-N was > 100 µM (inactive) in each case. For the same molecule, in the test on MDA-MB-435, the GI50 was > 100 µM (inactive).
